In patent publication US5622944A, “Testosterone prodrugs for improved drug delivery” (Affymax Technologies N.V., priority 1995, dated 1997):
Counter-ions that a name gives are not always drawn.

Key:
in vitro [1] = type: cell-based, human; settings: human, dermal fibroblasts, MTT; for CC50 at 2 h: IC50 2 h (cytotoxicity), 2 h incubation; for CC50 at 16 h: IC50 16 h (cytotoxicity), 16 h incubation
Description: As discussed above, the chemical modifier, when present in the subject in its free or released form, and in appropriately administered amounts, should preferably be non-toxic. Additionally, any further in vivo degradation products of the chemical modifier should be non-toxic, as well. Table 2 provides in vitro relative cytotoxicity data for a number of testosterone/chemical modifier complexes, prepared in accordance with the invention. The cytotoxicity assessment was carried out by examining the viability of human dermal fibroblasts in the presence of a number of testosterone/chemical modifier complexes in accordance with the present invention. Details of the experimental protocol are summarized in Example 27.
The viability of human dermal fibroblasts in the presence of the 17-hydroxy sterol/chemical modifier compounds was assayed using MTT (3-[4,5-dimethylthiazol-2-yl]-2,5-diphenyltetrazolium bromide) reduction to formazan by mitochondrial enzymes as an indicator of cytotoxicity (Swisher, et al.). Confluent fibroblast cells were incubated for 2 or 16 hours in the presence of increasing concentrations of drug complex. At the end of the incubation period, medium was replaced for 4 hours by medium containing the tetrazolium salt, MTT. Metabolism of MTT to a blue formazan was quantitated by spectrophotometry at 540 nm.

[2] = Water solubility (H2O sol); settings: H2O sol
[3] = type: in vitro ADME, mouse; settings: for Enhancement in in vitro electrotransport skin flux compared to testosterone: hairless mouse skin, vs unmodified testosterone, 'nearly 10-fold enhancement or greater'; for Flux, active electrotransport (ET): active cells (ETm), 100 uA/cm^2, 6 h
Description: In vitro electrotransport of testosterone/chemical modifier complexes across hairless mouse skin was evaluated as described in Example 28. The experiments were conducted using modified Valia-Chien cells having 1.0 ml donor and 2.5 ml receptor cells. Anodic transport was carried out using a silver wire-based salt bridge in the donor compartment and a silver chloride cathode in the receptor. Cathodic transport was effected by reversing the electrode configuration. The cells were connected in series and a constant current and temperature were supplied to each cell.
After a predetermined period of time (6 h), aliquots were removed from the receiver phase for immediate analysis by HPLC to determine cumulative flux.
The electrotransport of testosterone/chemical modifier complexes was achieved using modified Valia-Chien cells (1.0 ml donor and 2.5 ml receptor cells). Full thickness, hairless mouse skin (Charles River Labs, Wilmington, Mass.) was soaked for one hour in phosphate buffered saline (PBS, pH=7.4) before placing between each compartment (dermal side of skin facing toward receptor). One passive (P1:data) and two or more (ETm :data) active cells were used to screen each compound.
A 10 mM (1 ml) aqueous solution of testosterone drug/prodrug was placed in the donor (unstirred) compartment and the receptor (stirred) was filled with 2.5 ml of PBS. In order to check for egress due to e.g. damaged skin, a zero hour sample of receptor ([…]) was taken one half hour after the drug solution was placed in the donor compartment. Replacement fluid of equal sample volume was added to the receptor compartment immediately after samples were taken.
Anodic electrotransport was achieved using a silver wire (immersed in a polyvinylalcohol-based salt bridge to minimize junction potential) in the donor compartment and a AgCl cathode in the receptor. […] The electrotransport cells were connected in series and constant current (100 uA/cm^2, […] for a skin area of 0.64 cm^2) and temperature (32° C.) were supplied to each cell. After six hours of active/passive transport, aliquots (200 ul) of the receptor were sampled and immediately analyzed by HPLC.
A standard plot of peak area and concentration for each compound was constructed using HPLC. The peak areas of the samples were determined and the concentrations calculated using the standard data. Cumulative flux was calculated using Quickbasic and reported in nmol/cm^2 /hr.

in vitro [4] = type: in vitro ADME; settings: 37° C.; for half-life: human, serum
Description: The hydrolytic activity of the sterol prodrug may be evaluated by studies of the chemical or enzymatic conversion of the prodrug to the unmodified parent compound, as described in Example 26.
Generally, the sterol/chemical modifier complex is dissolved in a minimum amount of a suitable solvent, such as ethanol, and the resulting solution is added to a sample of human serum. Following incubation, aliquots are then removed at various time points and analyzed to determine the extent of hydrolysis. Table I herein lists the representative serum half-lives of a number of testosterone prodrugs according to the present invention.
The rates of conversion are readily determined, for example by spectrophotometric methods or by gas-liquid or high performance liquid chromatography. Half-lives and other kinetic parameters may then be calculated using standard techniques.
Determination of Testosterone Prodrug Hydrolysis in Serum
Stock solutions (6 mM) of the testosterone prodrugs were prepared in ethanol (dissolution was accomplished by vortexing, sonication, or warming at 37° C., as needed). If required for dissolution, one drop of a co-solvent such as dimethylsulfoxide, dimethylformamide or methanol was added. (Acetonitrile is undesirable because it deactivates the serum enzymes).
HPLC separation methods were established for each study by dilution of the above stock solutions (6 μl) in acetonitrile (1 ml) to form 36 μM solutions. Samples (10 μl) were injected onto a Nucleosil 5C8 column (250×4 mm ID) fitted with an additional guard column (11×4 mm ID) and eluted with a mobile phase of approximately 65% HPLC grade water and 35% trifluoroacetic acid in acetonitrile (0.1% TFA in acetonitrile). Exact proportions of the mobile phase eluents were adjusted in each case to give optimum separation and run times.
Freshly defrosted human serum (3 ml, Sigma) was warmed at 37° C. for five minutes and then the testosterone prodrug stock solution (60 μl) was added with vortexing. […] The aliquots were added to 800 μl of 2% zinc sulfate solution in a 1.5 ml disposable microcentrifuge tube, vortexed immediately and centrifuged at 14,000 RPM for 3 minutes. The supernatants (10 μl) were injected onto the HPLC and peak areas used to determine the percent of parent drug formed or percent of prodrug remaining. Serum blanks were prepared similarly by addition of serum to the zinc sulfate solution, followed by centrifugation. Initial (time=0) samples were prepared by adding serum to the zinc sulfate solution, followed by addition of the complex and separation by centrifugation. The time=0 samples, as well as the original stock solutions, were also used to assess the stability of the complex in the absence of enzyme. Half-lives were determined using the following equation : […]
and plotting time (x ordinate) versus the natural logarithm of percent remaining prodrug (y ordinate) to obtain the slope (m) and the y intercept (b).

[5] = Steady state flux across human skin (iontophoretic); type: in vitro ADME
Description: Another useful factor for in vitro assessment of skin permeability of a target drug or drug complex is steady state flux. Typically, when performing a kinetic analysis of the skin-penetrating ability of a target compound through a membrane, such as skin, such an analysis includes an assessment of the lag time and the steady state flux or permeation rate. The ideal membrane for such determinations is human skin.
Steady state flux across human skin was determined for three distinct testosterone/chemical modifier complexes, as shown in FIG. 5 and in Table 4. In FIG. 5, iontophoretic flux rates over time are plotted for testosterone-17β-stachydrine ester, chloride salt [2.9], (closed circles), testosterone-17β-(L-carnitine ethyl ester) carbonate, iodide salt [1.7] (solid squares), and testosterone-17β-choline carbonate, bromide salt [1.4] (open circles). […] Steady state flux values in FIG. 5 are expressed as testosterone equivalents in units of μg/cm^2 h.
Iontophoretically-induced steady state flux across human skin was determined for three distinct testosterone/chemical modifier complexes, testosterone-17β-stachydrine ester, chloride salt [2.9], testosterone-17β-(L-carnitine ethyl ester) carbonate, iodide salt [1.7], and testosterone-17β-choline carbonate, bromide salt [1.4]. The in vitro skin flux experiments were carried out in a similar fashion to those described above, with the exception that human skin was used as the membrane.
Steady state flux values provide an indication of the total amount of drug (or drug complex) that can penetrate the skin, under a given set of experimental conditions.

[6] = murine skin, 10 mM donor, 32° C.

Compound | Degradation (Degradation (%/d)) [%/d] | CC50 at 2 h (in vitro [1]) [µM] | CC50 at 16 h (in vitro [1]) [µM] | solubility [2] [mg/mL] | Enhancement in in vitro electrotransport skin flux compared to testosterone [3] [fold] | Flux, active electrotransport (ET) [3, 6] [nmol/cm^2 /hr] | Flux, passive (P) ([3]; murine skin, passive cells (P), 10 mM donor, 6 h, 32° C.) [nmol/cm^2 /hr] | half-life (in vitro [4]; HPLC) [h] | Steady State Flux ([5]; iontophoresis (Table 4)) [nmole/cm^2 /h] | half-life (in vitro [4]; footnote 1: prodrug remaining, no testosterone formed) [h] | Steady State Flux ([5]; iontophoresis) [nmol/cm^2 /h] | Steady state flux compared with the other two complexes (1.4, 1.7) ([5]; iontophoresis) | Serum half-life (in vitro [4]; human serum, HPLC, hydrochloride salt) [h]
C[C@]12CC[C@H]3[C@@H](CCC4=CC(=O)CC[C@@]43C)[C@@H]1CC[C@@H]2OC(=O)OCC[N+](C)(C)C [Code 1.4, testosterone-17β-choline carbonate, bromide salt] | 0 | 966 | 929 | 4 | ≥ 10 | 20.8 ± 21.0 | 4.0 ± 0.8 | 0.4 | 68 ± 4 | – | – | – | –
C[C@]12CC[C@H]3[C@@H](CCC4=CC(=O)CC[C@@]43C)[C@@H]1CC[C@@H]2OC(=O)CCCC[N+](C)(C)C [Code 2.4] | 0 | 609 | 568 | 18 | – | 2.7 ± 1.1 | – | ~720 | – | – | – | – | –
C[C@]12CC[C@H]3[C@@H](CCC4=CC(=O)CC[C@@]43C)[C@@H]1CC[C@@H]2OC(=O)CC[N+](C)(C)C [Code 2.5, testosterone-17β-(N,N,N-trimethyl-β-alaninyl ester), bromide salt] | 0 | > 600 | 329 | 0.3 | ≥ 10 | 18.0 ± 2.4 | – | – | – | ~0.167 | – | – | –
CC(=O)O[C@@H]1C[C@@H](C(=O)O[C@H]2CC[C@H]3[C@@H]4CCC5=CC(=O)CC[C@]5(C)[C@H]4CC[C@]23C)[N+](C)(C)C1 [Code 2.6, testosterone-17β-[(O-acetyl)-betonicinyl ester], chloride salt] | 0 | 733 | 271 | 21 | – | 0 | – | 8.2 | – | – | – | – | –
C[n+]1cccc(C(=O)O[C@H]2CC[C@H]3[C@@H]4CCC5=CC(=O)CC[C@]5(C)[C@H]4CC[C@]23C)c1 [Code 2.8] | 0 | 598 | 492 | 0.8 | – | 3.1 ± 1.2 | – | 25.5 | – | – | – | – | –
C[C@]12CC[C@H]3[C@@H](CCC4=CC(=O)CC[C@@]43C)[C@@H]1CC[C@@H]2OC(=O)[C@@H]1CCC[N+]1(C)C [Code 2.9, testosterone-17β-stachydrine ester, chloride salt] | 0 | 2130 | 750 | 22 | – | – | – | 13.7 | 184 ± 30 | – | 184 | greater than twice that of either of the other two testosterone/chemical modifier complexes | –
C[C@]12CC[C@H]3[C@@H](CCC4=CC(=O)CC[C@@]43C)[C@@H]1CC[C@@H]2OC(=O)OCOC(=O)CCCCC[N+](C)(C)C [Code 3.2, testosterone-17β-[6-(N,N,N-trimethylammonio)hexanoyloxy-methyl]carbonate iodide salt] | 77 | 615 | 406 | 20 | – | 4.8 ± 0.6 | – | 0.217 | – | – | – | – | –
C[C@]12CC[C@H]3[C@@H](CCC4=CC(=O)CC[C@@]43C)[C@@H]1CC[C@@H]2OC(=O)Oc1ccc(CC[N+](C)(C)C)cc1 [Code 3.4, testosterone-17β-candicine carbonate, iodide salt] | 1 | 544 | 44.6 | 0.1 | – | 0 | – | 5.8 | – | – | – | – | –
COC(=O)[C@H](COC(=O)O[C@H]1CC[C@H]2[C@@H]3CCC4=CC(=O)CC[C@]4(C)[C@H]3CC[C@]12C)N(C)C [Code 3.6, testosterone-17β-(N,N-dimethyl-L-serine methyl ester) carbonate, hydrochloride salt] | 3.8 | 224 | 157 | 20 | – | 6.8 ± 0.3 | – | – | – | – | – | – | 0.75
C[C@]12CC[C@H]3[C@@H](CCC4=CC(=O)CC[C@@]43C)[C@@H]1CC[C@@H]2OC(=O)C=CC[N+](C)(C)C [Code 3.8, testosterone-17β-[(4-N,N,N-trimethylammonio) crotonate], chloride salt] | 0 | 2290 | 583 | 21 | ≥ 10 | 9.4 ± 1.2 | – | 122 | – | – | – | – | –
